According to patent US5258401A, “Cholesterol lowering compounds” (Merck & Co., Inc., priority 1992, dated 1993):
≈ marks a conversion by molar mass, not a printed value.

Experiments:
Assay type in all cases: cell-based
[1] = tested on: Candida MY 1010; test: Antifungal inhibitor dilution assay in microtiter format (yeasts); conditions: MY1010, lowest concentration to prevent growth, read-out: Minimum Inhibitory Concentration
Experimental: (§1) The compounds are particularly active towards filamentous fungi and yeasts including Candida albicans and Cryptococcus neoformans. The sensitivity of filamentous fungi and yeast is determined using inhibitor dilution assays in microtiter format. The compounds are dissolved in DMSO at 2 mg/ml and serially diluted in 0.1M phosphate buffer, pH 7.0 in the microtiter dish from 100 to 0.006 μg/ml. A standardized spore suspension for testing the filamentous fungi is prepared by inoculating Antibiotic Medium #3 containing 1.5% agar with spores such that 1.5×10^3 colony forming units are added per well. The microtiter wells are filled with 50 μof buffer containing compound and 50 μl of inoculated medium.
(§2) The sensitivity of yeasts is determined by inoculating yeast nitrogen base containing 1% dextrose (YNB/G) with aliquots of an overnight yeast culture grown in Yeast Morphology (YM) media at 35° C. and diluting in YNB/G to yield a final concentration of 1.5-7.5×10^3 colony forming units/well. To test the sensitivity of yeast, compound is solubilized in 10 percent aqueous DMSO at 2.56 mg/ml. The compound is diluted serially in YNB/G from 128 to 0.06 μg/ml and further diluted 1:10 in YNB/G. The wells are filled with 150 μl of media containing drug. The minimum inhibitory concentration (MIC) is defined as the lowest concentration to prevent growth after an incubation for 42 hours, at 28° C. for the filamentous fungi and 24 to 48 hours, at 35° for the yeasts.

[2] = tested on: Candida MY 1012; test: as above; conditions: MY1012, lowest concentration to prevent growth, read-out: Minimum Inhibitory Concentration
Experimental: as §1, §2

[3] = tested on: Candida MY 1019; test: as above; conditions: MY1019, lowest concentration to prevent growth, read-out: Minimum Inhibitory Concentration
Experimental: as §1, §2

[4] = tested on: Candida MY 1028; test: as above; conditions: MY1028, lowest concentration to prevent growth, read-out: Minimum Inhibitory Concentration
Experimental: as §1, §2

[5] = tested on: Candida MY 1055; test: as above; conditions: MY1055, lowest concentration to prevent growth, read-out: Minimum Inhibitory Concentration
Experimental: as §1, §2

[6] = tested on: Candida MY 1750; test: as above; conditions: MY1750, lowest concentration to prevent growth, read-out: Minimum Inhibitory Concentration
Experimental: as §1, §2

[7] = tested on: Candida MY 2099; test: as above; conditions: MY2099, lowest concentration to prevent growth, read-out: Minimum Inhibitory Concentration
Experimental: as §1, §2

[8] = tested on: Cryptococcus MY 1051; test: as above; conditions: MY1051, lowest concentration to prevent growth, read-out: Minimum Inhibitory Concentration
Experimental: as §1, §2

[9] = tested on: Cryptococcus MY 1146; test: as above; conditions: MY1146, lowest concentration to prevent growth, read-out: Minimum Inhibitory Concentration
Experimental: as §1, §2

[10] = tested on: Cryptococcus MY 2061; test: as above; conditions: MY2061, lowest concentration to prevent growth, read-out: Minimum Inhibitory Concentration
Experimental: as §1, §2

[11] = tested on: Cryptococcus MY 2062; test: as above; conditions: MY2062, lowest concentration to prevent growth, read-out: Minimum Inhibitory Concentration
Experimental: as §1, §2

[12] = tested on: Sachromyces MY 1976; test: as above; conditions: lowest concentration to prevent growth, read-out: Minimum Inhibitory Concentration
Experimental: as §1, §2

[13] = tested on: Aspergillus MF 0383; test: Antifungal inhibitor dilution assay in microtiter format (filamentous fungi); conditions: MF0383, lowest concentration to prevent growth, read-out: Minimum Inhibitory Concentration
Experimental: as §1, §2

[14] = tested on: Aspergillus MF 4839; test: as above; conditions: MF4839, lowest concentration to prevent growth, read-out: Minimum Inhibitory Concentration
Experimental: as §1, §2

[15] = tested on: Aspergillus MF 5668; test: as above; conditions: MF5668, lowest concentration to prevent growth, read-out: Minimum Inhibitory Concentration
Experimental: as §1, §2

[16] = tested on: Aspergillus MF 5669; test: as above; conditions: MF5669, lowest concentration to prevent growth, read-out: Minimum Inhibitory Concentration
Experimental: as §1, §2

Structure (SMILES) | MIC [1] [µg/mL] | MIC [2] [µg/mL] | MIC [3] [µg/mL] | MIC [4] [µg/mL] | MIC [5] [µg/mL] | MIC [6] [µg/mL] | MIC [7] [µg/mL] | MIC [8] [µg/mL] | MIC [9] [µg/mL] | MIC [10] [µg/mL] | MIC [11] [µg/mL] | MIC [12] [µg/mL] | MIC [13] [µg/mL] | MIC [14] [µg/mL] | MIC [15] [µg/mL] | MIC [16] [µg/mL]
C=C(CC[C@]12OC[C@@](O)(C(=O)O)[C@](C(=O)O)(O1)[C@H](OC(=O)/C=C/[C@@H](C)C[C@@H](C)CC)[C@H]2O)[C@@H](OC(C)=O)[C@H](C)Cc1ccccc1 [Zaragozic Acid A-3-Descarboxy, (1S,4S,5R,6R,7R)-1-[(4S)-acetoxy-3-methylene-(5R)-methyl-6-phenyl]hexyl-4,6,7-trihydroxy-6-O-((4S),(6S)-dimethyl-2-octenoyl)-2,8-dioxabicyclo-[3.2.1]octane-4,5-dicarboxylic acid] | 64 (≈ 99 µM) | 16 (≈ 24.7 µM) | > 128 | 32 (≈ 49.5 µM) | 64 (≈ 99 µM) | 64 (≈ 99 µM) | > 128 | 0.25 (≈ 0.387 µM) | 2 (≈ 3.09 µM) | 4 (≈ 6.18 µM) | 1 (≈ 1.55 µM) | > 128 | 2 (≈ 3.09 µM) | 8 (≈ 12.4 µM) | 32 (≈ 49.5 µM) | 8 (≈ 12.4 µM)
C=C(CC[C@]12OC[C@@](O)(C(=O)OCOC(=O)C(C)(C)C)[C@](C(=O)O)(O1)[C@H](OC(=O)/C=C/[C@@H](C)C[C@@H](C)CC)[C@H]2O)[C@@H](OC(C)=O)[C@H](C)Cc1ccccc1 [Zaragozic acid A-3-descarboxy-4-methyl pivalate ester] | > 128 | 16 (≈ 21 µM) | > 128 | > 128 | > 128 | > 128 | > 128 | 2 (≈ 2.63 µM) | 8 (≈ 10.5 µM) | 64 (≈ 84.1 µM) | 8 (≈ 10.5 µM) | > 128 | 1 (≈ 1.31 µM) | 32 (≈ 42.1 µM) | 32 (≈ 42.1 µM) | 32 (≈ 42.1 µM)
